Measurements reported in PMC6522510 (Nature Communications, 2019).
Structures can show the parent of a compound that is named as a salt. Where two headings read alike, the source gives them in different places.

Legend:
Parameters in all cases: species or system AML cell lines (8); Primary HTS, single concentration about 10 uM, Cell Titer Glo viability; log10 luminescence, per cent inhibition relative to cycloheximide control
Settings in all cases: 72 h, relative to cycloheximide control, log10 luminescence, inhibitor
M07e = test system: M07e
CMS = test system: CMS
ML-2 = test system: ML-2
MOLM-13 = test system: MOLM-13
MV4-11 = test system: MV4-11
U937 = test system: U937
CHRF288-11 = test system: CHRF288-11
CMK = test system: CMK

SMILES	M07e %inh (M07e) [%]	CMS %inh (CMS) [%]	ML-2 %inh (ML-2) [%]	MOLM-13 %inh (MOLM-13) [%]	MV4-11 %inh (MV4-11) [%]	U937 %inh (U937) [%]	CHRF288-11 %inh (CHRF288-11) [%]	CMK %inh (CMK) [%]	M07e %inh (M07e; M07e %inh, 10 µM) [%]	CMS %inh (CMS; CMS %inh, 10 µM) [%]	ML-2 %inh (ML-2; ML-2 %inh, 10 µM) [%]	MOLM-13 %inh (MOLM-13; MOLM-13 %inh, 10 µM) [%]	MV4-11 %inh (MV4-11; MV4-11 %inh, 10 µM) [%]	U937 %inh (U937; U937 %inh, 10 µM) [%]	CHRF288-11 %inh (CHRF288-11; CHRF288-11 %inh, 10 µM) [%]	CMK %inh (CMK; CMK %inh, 10 µM) [%]
O=C1NC(=N[C@@H](CO)c2ccccc2)S/C1=C\c1ccc2ncccc2c1 [SJ000581004-1]	12.47	4.436	3.929	24.69	41.34	9.087	15.94	55.48	–	–	–	–	–	–	–	–
O=S(=O)(CCNCc1ccc(-c2ccc3ncnc(Nc4ccc(OCc5cccc(F)c5)c(Cl)c4)c3c2)o1)c1ccccc1 [SJ000573010-1, U15277/78/1]	-3.622	-1.695	0.08634	2.488	-1.134	1.807	-1.699	1.889	–	–	–	–	–	–	–	–
COc1cccc(-n2ncc3c(N/N=C/c4ccc(S(C)(=O)=O)cc4)ncnc32)c1 [SJ000573027-1, U18028/92/1]	-5.045	0.1842	-4.304	-3.446	1.569	-1.909	-7.861	-4.499	–	–	–	–	–	–	–	–
COCC1=C(C(=O)O)N2C(=O)[C@@H](NC(=O)/C(=N\OC)c3csc(N)n3)[C@H]2SC1 [SJ000312312-2, CEFPODOXIME, FREE ACID| R-3763| U-76253 | CEFPODOXIME, FREE ACID| R-3763| U-76253 | (6R,7R)-7-((Z)-2-(2-AMINOTHIAZOL-4-YL)-2-(METHOXYIMINO)ACETAMIDO)-3-(METHOXYMETHYL)-8-OXO-5-THIA-1-AZABICYCLO[4.2.0]OCT-2-ENE-2-CARBOXYLIC ACID]	-1.66	-1.332	-0.4312	-1.275	-2.052	-1.004	0.005285	34.96	–	–	–	–	–	–	–	–
CC(=O)Nc1cccc(C#Cc2cncnc2Nc2ccc(OCc3cccc(F)c3)c(Cl)c2)c1 [SJ000573332-1, U21935/99/1]	1.101	0.8612	1.213	0.3704	0.9824	4.462	3.642	-0.8317	–	–	–	–	–	–	–	–
CCCCCNC(=O)[C@@H]1CCCN2C(=O)CC[C@H](NC(=O)[C@H](Cc3ccc(OP(=O)(O)O)cc3)NC(C)=O)C(=O)N12 [SJ000580996-1]	-1.329	-2.301	-1.38	-0.4821	-4.998	0.5533	-2.344	-6.908	–	–	–	–	–	–	–	–
Nc1c(C(=O)c2ccc(CCCN3CCOCC3)cc2)cnn1-c1ccc(F)cc1 [SJ000581018-1]	0.8427	2.2	1.663	3.662	0.41	1.825	6.032	0.7543	–	–	–	–	–	–	–	–
NCCCC[C@H](N[C@@H](CCc1ccccc1)C(=O)O)C(=O)N1CCC[C@H]1C(=O)O [SJ000285890-5, LISINOPRIL]	–	–	–	–	–	–	–	–	-0.6293	-0.7769	2.151	-1.932	1.898	0.1781	0.1312	-4.631
Cn1cc(C=C2C(=O)Nc3cccnc32)c2ccccc21 [SJ000573065-1, U14362/24/1 | GW-441756 | GW441756]	-6.294	-3.947	-1.442	21.32	36.15	-3.233	-4.894	2.086	–	–	–	–	–	–	–	–
CC1(OC(=O)C2CCCC2)C(=O)C=C2C=C(c3ccsc3)OC=C2C1=O (centres unmarked) [SJ000580213-1]	-2.766	3.861	-0.1394	3.751	0.3204	2.696	1.734	0.9758	–	–	–	–	–	–	–	–
CN[C@H](C#Cc1c(F)ccc2c1/C(=C/c1[nH]ccc1OC)C(=O)N2)CO [SJ000581143-1]	77.31	103.6	61.18	108.7	81.33	84.86	59.49	110.7	–	–	–	–	–	–	–	–
CC(C)(C)C(=O)Oc1ccc(S(=O)(=O)Nc2ccccc2C(=O)NCC(=O)O)cc1 [SJ000556638-2, SIVELESTAT SODIUM SALT]	–	–	–	–	–	–	–	–	0.385	2.093	1.02	-1.5	2.862	-0.4301	2.891	-3.181
CCCCC(=O)N(Cc1ccc(-c2ccccc2-c2nnn[nH]2)cc1)[C@H](C(=O)O)C(C)C [SJ000286083-4]	–	–	–	–	–	–	–	–	-1.607	-1.191	-0.2697	-2.877	-5.399	-0.1303	3.369	-2.819
CCOc1cc(CC(=O)N[C@@H](CC(C)C)c2ccccc2N2CCCCC2)ccc1C(=O)O [SJ000287528-2, REPAGLINIDE]	–	–	–	–	–	–	–	–	3.133	0.05176	3.177	-0.4831	0.6192	-2.093	3.798	-2.471
N#Cc1cccc(Nc2nccc(-c3cnn4ncccc34)n2)c1 [SJ000573330-1, U19339/96/3]	113.8	104.6	56.71	98.39	85.56	80.06	55.56	106.6	–	–	–	–	–	–	–	–
CC(=O)O[C@]1(C(C)=O)CC[C@H]2[C@@H]3C=C(Cl)C4=CC(=O)[C@@H]5C[C@@H]5[C@]4(C)[C@H]3CC[C@@]21C [SJ000286483-6, CYPROTERONE ACETATE]	0.443	2.38	-2.366	-1.163	2.562	1.732	-0.8844	-1.818	–	–	–	–	–	–	–	–
